{"source": "paper PMC5869712", "about": "(Scientific Reports, 2018)", "key": {"B-Raf": {"biological_target": "T1, B-Raf (Homo sapiens, UniProt P15056)", "T1 construct": "purchased Eurofins KinaseProfiler (Eurofins Pharma Discovery Services UK, Dundee); JAK3 also ChemPartner", "experiment": "Eurofins Kinase Profiler panel", "type": "biochemical", "details": "read-out: % inhibition (1μM), DMSO control=100%, lower=stronger"}, "JAK3": {"biological_target": "T2, JAK3 (Homo sapiens, UniProt P52333)", "T2 construct": "ChemPartner (contract assay service)", "T2 sequence (P52333 1-1124)": "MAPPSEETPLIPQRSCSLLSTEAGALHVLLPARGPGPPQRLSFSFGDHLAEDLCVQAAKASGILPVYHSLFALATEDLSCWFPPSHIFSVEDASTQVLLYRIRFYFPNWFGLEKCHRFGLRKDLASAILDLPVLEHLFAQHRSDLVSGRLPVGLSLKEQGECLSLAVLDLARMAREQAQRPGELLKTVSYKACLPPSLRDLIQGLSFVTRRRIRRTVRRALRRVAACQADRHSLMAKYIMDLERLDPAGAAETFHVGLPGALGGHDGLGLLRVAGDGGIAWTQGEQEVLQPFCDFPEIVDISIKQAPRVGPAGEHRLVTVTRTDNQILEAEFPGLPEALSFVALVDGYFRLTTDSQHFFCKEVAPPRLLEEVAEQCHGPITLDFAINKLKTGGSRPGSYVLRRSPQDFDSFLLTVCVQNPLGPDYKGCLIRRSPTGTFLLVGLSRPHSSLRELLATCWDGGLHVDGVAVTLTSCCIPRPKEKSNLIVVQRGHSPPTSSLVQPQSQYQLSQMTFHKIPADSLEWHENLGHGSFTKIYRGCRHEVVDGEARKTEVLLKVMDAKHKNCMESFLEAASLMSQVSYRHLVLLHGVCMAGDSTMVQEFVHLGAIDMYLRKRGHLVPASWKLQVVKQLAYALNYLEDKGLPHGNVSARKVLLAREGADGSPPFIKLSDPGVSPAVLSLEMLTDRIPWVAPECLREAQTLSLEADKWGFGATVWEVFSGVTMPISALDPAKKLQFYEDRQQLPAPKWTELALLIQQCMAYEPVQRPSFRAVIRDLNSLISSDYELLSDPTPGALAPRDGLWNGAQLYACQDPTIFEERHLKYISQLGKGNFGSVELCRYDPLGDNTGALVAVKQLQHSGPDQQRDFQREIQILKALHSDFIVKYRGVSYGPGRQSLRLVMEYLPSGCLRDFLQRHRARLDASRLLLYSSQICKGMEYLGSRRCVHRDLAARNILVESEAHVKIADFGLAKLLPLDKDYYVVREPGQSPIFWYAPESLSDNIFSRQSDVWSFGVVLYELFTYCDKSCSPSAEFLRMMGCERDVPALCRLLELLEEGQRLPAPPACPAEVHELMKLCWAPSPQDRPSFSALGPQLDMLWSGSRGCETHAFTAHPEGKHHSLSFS", "experiment": "Enzymatic Caliper Mobility Shift Assay, ATP at Km", "type": "biochemical", "text": "(§1) The assay protocol guides are commercially available from ChemPartner."}, "JAK2": {"biological_target": "T3, JAK2 (Homo sapiens, UniProt O60674)", "T3 construct": "ChemPartner (contract assay service)", "T3 sequence (O60674 whole entry)": "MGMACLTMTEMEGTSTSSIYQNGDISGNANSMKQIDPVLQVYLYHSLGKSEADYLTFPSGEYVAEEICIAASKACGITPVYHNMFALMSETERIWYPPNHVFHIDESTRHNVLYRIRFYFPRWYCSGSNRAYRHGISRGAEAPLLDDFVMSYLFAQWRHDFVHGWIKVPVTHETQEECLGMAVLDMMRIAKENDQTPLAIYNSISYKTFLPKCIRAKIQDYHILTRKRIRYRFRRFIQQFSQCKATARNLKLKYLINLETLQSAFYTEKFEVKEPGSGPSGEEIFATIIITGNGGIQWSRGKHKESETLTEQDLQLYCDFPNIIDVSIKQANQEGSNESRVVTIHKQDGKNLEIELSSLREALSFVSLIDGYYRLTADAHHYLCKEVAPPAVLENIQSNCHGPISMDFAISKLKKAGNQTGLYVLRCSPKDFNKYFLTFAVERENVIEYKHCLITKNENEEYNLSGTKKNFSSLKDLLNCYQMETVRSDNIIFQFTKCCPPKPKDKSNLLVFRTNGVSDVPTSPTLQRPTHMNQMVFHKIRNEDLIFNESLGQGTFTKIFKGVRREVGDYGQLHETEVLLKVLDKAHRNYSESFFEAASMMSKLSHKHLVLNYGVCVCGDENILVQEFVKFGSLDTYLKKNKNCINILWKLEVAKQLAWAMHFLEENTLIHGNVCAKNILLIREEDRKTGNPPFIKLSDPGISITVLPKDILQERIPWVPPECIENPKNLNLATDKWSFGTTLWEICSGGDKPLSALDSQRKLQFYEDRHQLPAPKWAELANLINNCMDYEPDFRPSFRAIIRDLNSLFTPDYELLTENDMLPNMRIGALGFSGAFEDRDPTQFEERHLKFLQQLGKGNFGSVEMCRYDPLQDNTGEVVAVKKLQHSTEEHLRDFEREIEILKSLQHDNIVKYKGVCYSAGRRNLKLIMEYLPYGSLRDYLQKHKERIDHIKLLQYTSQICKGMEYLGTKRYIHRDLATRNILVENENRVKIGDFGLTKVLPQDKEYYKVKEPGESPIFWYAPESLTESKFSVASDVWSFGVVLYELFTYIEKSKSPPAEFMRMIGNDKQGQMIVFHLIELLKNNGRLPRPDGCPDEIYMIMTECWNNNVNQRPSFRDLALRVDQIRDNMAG", "experiment": "Enzymatic Caliper Mobility Shift Assay, ATP at Km", "type": "biochemical", "text": "as §1"}, "JAK1": {"biological_target": "T4, JAK1 (Homo sapiens, UniProt P23458)", "T4 construct": "ChemPartner (contract assay service)", "T4 sequence (P23458 whole entry)": "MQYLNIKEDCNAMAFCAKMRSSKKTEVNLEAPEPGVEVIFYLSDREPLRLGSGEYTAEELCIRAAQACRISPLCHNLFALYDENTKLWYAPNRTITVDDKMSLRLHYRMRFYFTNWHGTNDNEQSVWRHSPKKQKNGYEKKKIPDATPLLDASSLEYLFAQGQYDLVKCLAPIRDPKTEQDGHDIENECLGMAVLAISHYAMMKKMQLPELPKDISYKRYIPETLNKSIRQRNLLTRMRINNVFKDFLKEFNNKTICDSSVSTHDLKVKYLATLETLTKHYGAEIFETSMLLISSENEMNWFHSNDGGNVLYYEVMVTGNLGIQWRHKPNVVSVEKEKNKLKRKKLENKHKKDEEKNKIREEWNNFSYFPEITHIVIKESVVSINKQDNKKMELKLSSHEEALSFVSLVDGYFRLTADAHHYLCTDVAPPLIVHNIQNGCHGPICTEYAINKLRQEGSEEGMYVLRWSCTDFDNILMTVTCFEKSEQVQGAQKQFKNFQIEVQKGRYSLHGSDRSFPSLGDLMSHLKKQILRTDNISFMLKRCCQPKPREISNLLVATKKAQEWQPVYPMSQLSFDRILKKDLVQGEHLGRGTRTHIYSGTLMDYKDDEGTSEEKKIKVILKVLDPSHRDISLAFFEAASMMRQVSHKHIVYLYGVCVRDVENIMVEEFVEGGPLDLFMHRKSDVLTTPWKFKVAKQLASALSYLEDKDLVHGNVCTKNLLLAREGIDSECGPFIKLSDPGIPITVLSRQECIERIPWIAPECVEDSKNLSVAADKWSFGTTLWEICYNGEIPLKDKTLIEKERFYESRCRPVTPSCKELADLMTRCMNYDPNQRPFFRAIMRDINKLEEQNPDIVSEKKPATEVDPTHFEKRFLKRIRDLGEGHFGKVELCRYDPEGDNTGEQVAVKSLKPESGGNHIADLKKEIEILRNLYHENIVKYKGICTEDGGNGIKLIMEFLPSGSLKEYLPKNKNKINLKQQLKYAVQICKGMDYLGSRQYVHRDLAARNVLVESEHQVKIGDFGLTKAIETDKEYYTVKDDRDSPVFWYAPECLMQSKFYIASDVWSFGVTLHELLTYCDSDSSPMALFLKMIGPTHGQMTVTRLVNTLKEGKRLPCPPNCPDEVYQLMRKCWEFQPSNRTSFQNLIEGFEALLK", "experiment": "Enzymatic Caliper Mobility Shift Assay, ATP at Km", "type": "biochemical", "text": "as §1"}, "TYK2": {"biological_target": "TYK2 (Homo sapiens, UniProt P29597)", "sequence (P29597 whole entry)": "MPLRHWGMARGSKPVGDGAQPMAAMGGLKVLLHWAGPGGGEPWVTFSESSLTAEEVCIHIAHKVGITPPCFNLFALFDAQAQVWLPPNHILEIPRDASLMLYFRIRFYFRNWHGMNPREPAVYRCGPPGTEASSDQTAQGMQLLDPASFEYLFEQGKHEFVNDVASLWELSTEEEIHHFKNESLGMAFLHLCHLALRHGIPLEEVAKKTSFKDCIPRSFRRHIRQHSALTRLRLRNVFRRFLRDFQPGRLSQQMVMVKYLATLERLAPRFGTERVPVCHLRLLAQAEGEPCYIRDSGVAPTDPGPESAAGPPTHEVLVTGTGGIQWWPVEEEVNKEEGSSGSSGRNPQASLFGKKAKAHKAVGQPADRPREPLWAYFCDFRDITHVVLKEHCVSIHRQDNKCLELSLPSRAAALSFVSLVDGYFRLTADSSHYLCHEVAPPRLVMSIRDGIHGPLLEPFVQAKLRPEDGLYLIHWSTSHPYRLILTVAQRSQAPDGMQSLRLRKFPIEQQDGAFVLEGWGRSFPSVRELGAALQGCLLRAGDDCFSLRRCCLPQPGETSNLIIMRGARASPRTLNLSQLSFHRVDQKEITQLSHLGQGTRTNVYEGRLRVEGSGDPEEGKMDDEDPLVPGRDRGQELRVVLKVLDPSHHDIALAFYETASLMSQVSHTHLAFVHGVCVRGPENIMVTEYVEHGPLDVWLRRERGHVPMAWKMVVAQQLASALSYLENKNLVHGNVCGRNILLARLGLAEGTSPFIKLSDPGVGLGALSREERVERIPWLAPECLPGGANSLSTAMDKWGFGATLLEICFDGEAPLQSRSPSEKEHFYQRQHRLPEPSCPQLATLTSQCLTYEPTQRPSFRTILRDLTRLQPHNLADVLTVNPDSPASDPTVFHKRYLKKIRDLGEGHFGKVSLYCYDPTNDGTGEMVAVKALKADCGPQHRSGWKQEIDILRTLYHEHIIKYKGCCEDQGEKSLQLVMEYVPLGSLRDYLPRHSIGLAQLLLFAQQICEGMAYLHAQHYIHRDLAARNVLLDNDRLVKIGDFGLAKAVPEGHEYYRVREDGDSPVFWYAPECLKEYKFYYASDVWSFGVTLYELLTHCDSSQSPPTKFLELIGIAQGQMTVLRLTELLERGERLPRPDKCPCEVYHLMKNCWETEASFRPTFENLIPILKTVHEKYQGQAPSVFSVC", "experiment": "Enzymatic Caliper Mobility Shift Assay, ATP at Km", "type": "biochemical", "text": "as §1"}, "KDR": {"biological_target": "T5, KDR (Homo sapiens, UniProt P35968)", "T5 construct": "purchased Eurofins KinaseProfiler (Eurofins Pharma Discovery Services UK, Dundee); JAK3 also ChemPartner", "experiment": "Eurofins Kinase Profiler panel", "type": "biochemical", "details": "read-out: % inhibition (1μM), DMSO control=100%, lower=stronger"}, "[1]": {"tested_on": "IL-6-induced JAK/STAT3 phosphorylation in TF-1 cells (JAK1)", "experiment": "STAT3 phosphorylation induced by IL-6 in TF-1 cells, Western blot"}, "ALK": {"biological_target": "T6, ALK (Homo sapiens, UniProt Q9UM73)", "T6 construct": "purchased Eurofins KinaseProfiler (Eurofins Pharma Discovery Services UK, Dundee); JAK3 also ChemPartner", "experiment": "Eurofins Kinase Profiler panel", "type": "biochemical", "details": "read-out: % inhibition (1μM), DMSO control=100%, lower=stronger"}, "ERBB2": {"biological_target": "T7, ERBB2 (Homo sapiens, UniProt P04626)", "T7 construct": "EurofinsCerep (contract assay service)", "experiment": "Cys-containing kinase family panel (EurofinsCerep)", "type": "biochemical"}, "MST1": {"biological_target": "T8, MST1 (Homo sapiens, UniProt Q13043)", "T8 construct": "purchased Eurofins Pharma Discovery Services UK Limited (Kinase Profiler screening platform)", "experiment": "Eurofins Kinase Profiler panel", "type": "biochemical", "details": "read-out: % inhibition (1μM), DMSO control=100%, lower=stronger"}, "MKK7β": {"biological_target": "T9, MKK7β (Homo sapiens, UniProt O14733)", "T9 construct": "Eurofins Pharma Discovery Services UK Limited (Kinase Profiler service)", "T9 sequence (O14733 whole entry)": "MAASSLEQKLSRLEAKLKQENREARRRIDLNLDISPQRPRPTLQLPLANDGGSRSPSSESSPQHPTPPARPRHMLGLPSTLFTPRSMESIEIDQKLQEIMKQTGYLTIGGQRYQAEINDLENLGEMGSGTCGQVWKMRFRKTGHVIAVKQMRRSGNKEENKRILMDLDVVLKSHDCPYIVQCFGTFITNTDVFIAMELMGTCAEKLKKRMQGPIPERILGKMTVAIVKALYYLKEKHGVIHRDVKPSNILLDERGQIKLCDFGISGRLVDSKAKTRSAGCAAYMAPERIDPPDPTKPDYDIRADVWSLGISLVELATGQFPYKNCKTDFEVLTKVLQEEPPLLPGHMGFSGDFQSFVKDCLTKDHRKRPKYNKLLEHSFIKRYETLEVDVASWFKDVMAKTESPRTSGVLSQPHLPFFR", "experiment": "Eurofins Kinase Profiler panel", "type": "biochemical"}, "IKKα": {"biological_target": "T10, IKKα (Homo sapiens, UniProt O15111)", "T10 construct": "purchased Eurofins KinaseProfiler (Eurofins Pharma Discovery Services UK, Dundee); JAK3 also ChemPartner", "experiment": "Eurofins Kinase Profiler panel", "type": "biochemical", "details": "read-out: % inhibition (1μM), DMSO control=100%, lower=stronger"}, "Fyn": {"biological_target": "T11, Fyn (Homo sapiens, UniProt P06241)", "T11 construct": "purchased Eurofins Pharma Discovery Services UK Limited (Kinase Profiler screening platform)", "T11 sequence (P06241 whole entry)": "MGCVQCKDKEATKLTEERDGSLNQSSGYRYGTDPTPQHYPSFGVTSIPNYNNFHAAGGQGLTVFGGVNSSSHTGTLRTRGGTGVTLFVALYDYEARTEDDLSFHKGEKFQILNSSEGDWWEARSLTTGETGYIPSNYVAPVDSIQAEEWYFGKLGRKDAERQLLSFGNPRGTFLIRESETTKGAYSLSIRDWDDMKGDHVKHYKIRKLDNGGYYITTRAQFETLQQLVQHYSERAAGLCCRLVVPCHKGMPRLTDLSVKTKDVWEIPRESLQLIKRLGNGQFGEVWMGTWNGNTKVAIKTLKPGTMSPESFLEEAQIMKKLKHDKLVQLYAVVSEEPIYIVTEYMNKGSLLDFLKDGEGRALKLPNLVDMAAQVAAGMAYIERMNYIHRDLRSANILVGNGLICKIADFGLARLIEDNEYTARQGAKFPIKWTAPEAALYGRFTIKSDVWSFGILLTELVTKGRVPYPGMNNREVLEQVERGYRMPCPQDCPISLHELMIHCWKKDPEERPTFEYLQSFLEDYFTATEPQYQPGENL", "experiment": "Eurofins Kinase Profiler panel", "type": "biochemical", "details": "read-out: % inhibition (1μM), DMSO control=100%, lower=stronger"}, "[2]": {"tested_on": "G-CSF-induced JAK/STAT3 phosphorylation in HEL cells (JAK1/JAK2)", "experiment": "STAT3 phosphorylation induced by G-CSF in HEL cells, Western blot", "details": "for IC50: Homo sapiens"}, "IGF-1R": {"biological_target": "T12, IGF-1R (Homo sapiens, UniProt P08069)", "T12 construct": "purchased Eurofins KinaseProfiler (Eurofins Pharma Discovery Services UK, Dundee); JAK3 also ChemPartner", "experiment": "Eurofins Kinase Profiler panel", "type": "biochemical", "details": "read-out: % inhibition (1μM), DMSO control=100%, lower=stronger"}, "ALK4": {"biological_target": "T13, ALK4 (Homo sapiens, UniProt P36896)", "T13 construct": "purchased Eurofins KinaseProfiler (Eurofins Pharma Discovery Services UK, Dundee); JAK3 also ChemPartner", "experiment": "Eurofins Kinase Profiler panel", "type": "biochemical", "details": "read-out: % inhibition (1μM), DMSO control=100%, lower=stronger"}, "[3]": {"tested_on": "IL-4-induced JAK/STAT6 phosphorylation in THP-1 cells (JAK1/JAK3)", "experiment": "STAT6 phosphorylation induced by IL-4 in THP-1 cells, Western blot", "details": "for IC50: Homo sapiens"}, "MAPK1": {"biological_target": "T14, MAPK1 (Homo sapiens, UniProt P27361)", "T14 construct": "purchased Eurofins KinaseProfiler (Eurofins Pharma Discovery Services UK, Dundee); JAK3 also ChemPartner", "T14 sequence (P27361 whole entry)": "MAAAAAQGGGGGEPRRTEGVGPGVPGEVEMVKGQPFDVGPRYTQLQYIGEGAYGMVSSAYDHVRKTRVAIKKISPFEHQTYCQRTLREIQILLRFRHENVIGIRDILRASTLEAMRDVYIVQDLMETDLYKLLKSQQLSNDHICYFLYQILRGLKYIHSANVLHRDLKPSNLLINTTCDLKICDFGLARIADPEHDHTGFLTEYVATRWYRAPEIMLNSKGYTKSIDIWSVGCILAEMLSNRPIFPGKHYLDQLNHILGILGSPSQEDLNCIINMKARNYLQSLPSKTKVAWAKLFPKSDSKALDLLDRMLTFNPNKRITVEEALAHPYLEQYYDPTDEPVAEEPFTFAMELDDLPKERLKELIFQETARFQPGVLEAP", "experiment": "Eurofins Kinase Profiler panel", "type": "biochemical", "details": "read-out: % inhibition (1μM), DMSO control=100%, lower=stronger"}, "[4]": {"tested_on": "IL-2-induced STAT5 phosphorylation (JAK1/JAK3)", "experiment": "IL-2-induced pSTAT5 in total lymphocytes in hPBMCs, flow cytometry", "type": "cell-based", "details": "Homo sapiens, Lymphocyte, hPBMC total lymphocytes, trigger IL-2, readout pSTAT5"}}, "note": "Like-named read-outs stand apart in the source and are kept apart here.", "data": [{"molecule": "C=CC(=O)N[C@@H]1CCCN(c2ncnc3[nH]ccc23)C1", "note": "[RB1]", "values": [{"measurement": "activity at 1 µM", "setting": "B-Raf", "result": 90, "unit": "%"}, {"measurement": "IC50", "setting": "JAK3", "result": 40, "unit": "nM"}, {"measurement": "preference for JAK3 above JAK2, JAK1 and TYK2", "setting": "JAK3; kinase assay", "result": "over 100 fold"}, {"measurement": "IC50", "setting": "JAK2", "result": "> 5000", "unit": "nM"}, {"measurement": "inhibition of JAK2", "setting": "JAK2; at concentrations up to 5 µM", "result": "did not inhibit"}, {"measurement": "IC50", "setting": "JAK1", "result": "> 5000", "unit": "nM"}, {"measurement": "inhibition of JAK1", "setting": "JAK1; at concentrations up to 5 µM", "result": "did not inhibit"}, {"measurement": "IC50", "setting": "TYK2; TYK2, ATP 16.0 μM (Km)", "result": "> 5000", "unit": "nM"}, {"measurement": "inhibition of TYK2", "setting": "TYK2; at concentrations up to 5 µM", "result": "did not inhibit"}, {"measurement": "activity at 1 µM", "setting": "KDR", "result": 96, "unit": "%"}, {"measurement": "IC50", "setting": "[1]; Homo sapiens, TF-1, read-out: IC50, STAT and JAK phosphorylation", "result": "> 50000", "unit": "nM"}, {"measurement": "Selectivity JAK1/JAK3", "setting": "[1]; TF-1, IL-6, pSTAT3", "result": "> 1000"}, {"measurement": "activity at 1 µM", "setting": "ALK", "result": 100, "unit": "%"}, {"measurement": "inhibition at 1 µM", "setting": "ERBB2", "result": 2.85, "unit": "%"}, {"measurement": "activity at 1 µM", "setting": "MST1", "result": 83, "unit": "%"}, {"measurement": "IC50", "setting": "MKK7β; estimated", "result": "> 800", "unit": "nM"}, {"measurement": "activity at 1 µM", "setting": "MKK7β; read-out: % inhibition (1μM), 1 µM, DMSO control=100%, lower=stronger", "result": 20, "unit": "%"}, {"measurement": "activity at 1 µM", "setting": "IKKα", "result": 97, "unit": "%"}, {"measurement": "activity at 1 µM", "setting": "Fyn", "result": 97, "unit": "%"}, {"measurement": "G-CSF-induced phosphorylation of STAT3", "setting": "[2]; HEL cells, RB1 at concentrations over 50 μM", "result": "not affected"}, {"measurement": "Selectivity JAK1/JAK3", "setting": "[2]; HEL, G-CSF, pSTAT3", "result": "> 1000"}, {"measurement": "Selectivity JAK2/JAK3", "setting": "[2]; HEL, G-CSF, pSTAT3", "result": "> 1000"}, {"measurement": "IC50", "setting": "[2]; HEL, read-out: IC50 (nM) JAK1", "result": "> 50000", "unit": "nM"}, {"measurement": "IC50", "setting": "[2]; HEL, read-out: IC50 (nM) JAK2", "result": "> 50000", "unit": "nM"}, {"measurement": "activity at 1 µM", "setting": "IGF-1R", "result": 93, "unit": "%"}, {"measurement": "activity at 1 µM", "setting": "ALK4", "result": 101, "unit": "%"}, {"measurement": "IC50", "setting": "[3]; THP-1, read-out: IC50 (nM) JAK1", "result": "> 50000", "unit": "nM"}, {"measurement": "IC50", "setting": "[3]; THP-1, read-out: IC50 (nM) JAK3", "result": 53.1, "unit": "nM"}, {"measurement": "inhibition of JAK3 phosphorylation compared with JAK1/JAK2-mediated STATs phosphorylation", "setting": "[3]; IL-4 cell-based assay in THP-1 cells", "result": "over 1000 folds"}, {"measurement": "Selectivity JAK1/JAK3", "setting": "[3]; THP-1, IL-4, pSTAT6", "result": "> 1000"}, {"measurement": "selectivity for JAK3 activity over JAK1 or JAK2", "setting": "[3]; battery of cytokine-stimulated cell-based assays", "result": "> 100", "unit": "fold"}, {"measurement": "activity at 1 µM", "setting": "MAPK1", "result": 85, "unit": "%"}, {"measurement": "IC50", "setting": "[4]", "result": 105, "unit": "nM"}]}]}
